# Experimental data from patent US11806342B2, “Diiodohydroxyquinoline for the treatment of clostridium difficile infection” (Purdue Research Foundation, priority 2019, dated 2023).
# Assays:
# [1] = test system: 38 tested C. difficile strains; assay: MIC and MBC over the panel of clinical isolates (MIC50, MIC90, range); format: cell-based, Clostridium difficile; conditions: Clostridioides difficile
# Description: MIC50 and MIC90 are the minimum concentration of each agent that inhibited growth of 50% and 90% of the tested isolates, respectively. The minimum bactericidal concentration (MBC) of these drugs was tested by plating 5 μL from wells with no growth onto BHIS agar plates. The MBC was categorized as the lowest concentration that reduced bacterial growth by 99.9% MIC50 and MIC90 are the minimum concentration of each agent that inhibited the growth of 50% and 90% of the tested isolates, respectively. The minimum bactericidal concentration (MBC) of these drugs was tested by plating 5 μL from wells with no growth onto BHIS agar plates. The MBC was categorized as the lowest concentration that reduced bacterial growth by 99.9% [29-31].
# C. difficile P11 = assay: Checkerboard assay, DIHQ with metronidazole or vancomycin; format: cell-based, Clostridium difficile
# Description: (§1) Interactions between diiodohydroxyquinoline and the anticlostridial drugs (metronidazole and vancomycin) against Clostridium difficile clinical isolates. […] The fractional inhibitory concentration index (ΣFIC) was calculated for each interaction. Interactions where the ΣFIC index was ≤0.5 were categorized as synergistic (SYN).
# C. difficile ATCC 9689 = assay: as above; format: cell-based, Clostridium difficile
# Description: as §1
# [2] = test system: Bacteroides fragilis HM-709; assay: MIC against normal gut microflora, broth microdilution; format: cell-based; conditions: Bacteroides fragilis, HM709
# How it was run: (§2)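 Inoculum was set to a 0.5 McFarland standard, then diluted […] to about 5×10^5 CFU/mL. Test compounds and control antibiotics were serially diluted across the plate to determine the MIC.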
# [3] = test system: Lactobacillus crispatus HM-371; assay: as above; format: cell-based; conditions: Lactobacillus crispatus, HM371
# How it was run: as §2
# [4] = test system: Lactobacillus reuteri HM-102; assay: as above; format: cell-based; conditions: Limosilactobacillus reuteri, HM102
# How it was run: as §2
# Bacteroides dorei HM-718 = assay: as above; format: cell-based; conditions: Phocaeicola dorei, HM718
# How it was run: as §2
# [5] = test system: Bifidobacterium adolescentis HM-633; assay: as above; format: cell-based; conditions: Bifidobacterium adolescentis, HM633
# How it was run: as §2
# [6] = test system: Bifidobacterium longum HM-845; assay: as above; format: cell-based; conditions: Bifidobacterium longum, HM845
# How it was run: as §2
# Bacteroides dorei HM-717 = assay: as above; format: cell-based; conditions: Phocaeicola dorei, HM717
# How it was run: as §2
# [7] = test system: Bacteroides fragilis HM-714; assay: as above; format: cell-based; conditions: Bacteroides fragilis, HM714
# How it was run: as §2
# [8] = test system: Bifidobacterium breve HM-411; assay: as above; format: cell-based; conditions: Bifidobacterium breve, HM411
# How it was run: as §2
# [9] = test system: Bifidobacterium longum HM-847; assay: as above; format: cell-based; conditions: Bifidobacterium longum, HM847
# How it was run: as §2
# Bacteroides dorei HM-29 = assay: as above; format: cell-based; conditions: Phocaeicola dorei, HM29
# How it was run: as §2
# [10] = test system: Bacteroides fragilis HM-710; assay: as above; format: cell-based; conditions: Bacteroides fragilis, HM710
# How it was run: as §2
# [11] = test system: C. difficile ATCC BAA-1870; assay: Toxin A and B production inhibition, ELISA; format: cell-based, Clostridium difficile; conditions: C. difficile ATCC BAA-1870, ¼×MIC and ½×MIC
# Description: (§3) To investigate DIHQs toxin production inhibitory activity, toxin A and toxin B levels were measured as described previously. […] An aliquot from each tube was diluted and plated on BHIS agar plates and incubated anaerobically at 37° C. for 24 hours to detect the bacterial count. The total concentration of C. difficile toxin A and B was measured in the supernatant of each tube using enzyme linked immunosorbent assay (ELISA) kit (tgc BIOMICS, Dunwoody, GA) following the manufacturer's instructions. The (OD450-OD620) values, corresponding to the toxin concentration, were measured for DIHQ and control drugs.
# C. difficile ATCC 43255 [12] = assay: Toxin A and B production inhibition, ELISA; format: cell-based, Clostridium difficile; conditions: C. difficile ATCC 43255, ¼×MIC and ½×MIC
# Description: as §3
# C. difficile NR-49277 = assay: Toxin A and B production inhibition, ELISA; format: cell-based, Clostridium difficile; conditions: C. difficile NR-49277, ¼×MIC and ½×MIC
# Description: as §3
# C. difficile I9 = assay: Checkerboard assay, DIHQ with metronidazole or vancomycin; format: cell-based, Clostridium difficile
# Description: (§4) The fractional inhibitory concentration index (ΣFIC) was calculated for each interaction. Interactions where the ΣFIC index was ≤0.5 were categorized as synergistic (SYN).
# [13] = test system: C. difficile ATCC BAA-1870; assay: as above; format: cell-based, Clostridium difficile
# Description: as §4
# C. difficile ATCC 43255 [14] = assay: as above; format: cell-based, Clostridium difficile
# Description: as §4
# C. difficile ATCC 43255 [15] = assay: Initial screening of antiparasitic drugs, broth microdilution MIC; format: cell-based, Clostridium difficile; conditions: Clostridioides difficile, ATCC43255
# Description: C. difficile strains were grown anaerobically on brain heart infusion supplemented (BHIS) agar plates at 37° C. for 48 hours. Afterwards, a bacterial solution equivalent to 0.5 McFarland standard was prepared and diluted in (BHIS) broth to achieve a bacterial concentration of about 5×10^5 CFU/mL. Drugs were added and serially diluted along the plates. Plates were then, incubated anaerobically at 37° C. for 48 hours. MICs reported in Table (1) are the minimum concentrations of the drugs that could completely suppress the visual growth of bacteria.
smiles,measurement,setting,value
"CN[C@H](CC(C)C)C(=O)N[C@H]1C(=O)N[C@@H](CC(N)=O)C(=O)N[C@H]2C(=O)N[C@H]3C(=O)N[C@H](C(=O)N[C@H](C(=O)O)c4cc(O)cc(O)c4-c4cc3ccc4O)[C@H](O)c3ccc(c(Cl)c3)Oc3cc2cc(c3O[C@@H]2O[C@H](CO)[C@@H](O)[C@H](O)[C@H]2O[C@H]2C[C@](C)(N)[C@H](O)[C@H](C)O2)Oc2ccc(cc2Cl)[C@H]1O [Vancomycin, vancomycin]",MIC50,[1],0.5 µg/mL
same,MIC90,[1],1 µg/mL
same,MIC of vancomycin combined with DIHQ,C. difficile P11; C. difficile P11,0.125 µg/mL
same,MIC,"C. difficile P11; Clostridioides difficile, P11, read-out: MIC alone",1 µg/mL
same,MIC of vancomycin combined with DIHQ,C. difficile ATCC 9689; C. difficile ATCC 9689,0.125 µg/mL
same,MIC,"C. difficile ATCC 9689; Clostridioides difficile, ATCC9689, read-out: MIC alone",1 µg/mL
same,MIC,[2],64 µg/mL
same,MIC,[3],4 µg/mL
same,MIC,[4],> 128 µg/mL
same,MIC,Bacteroides dorei HM-718,128 µg/mL
same,MIC,[5],≤ 1 µg/mL
same,MIC,[6],≤ 1 µg/mL
same,MIC,Bacteroides dorei HM-717,128 µg/mL
same,MIC,[7],128 µg/mL
same,MIC,[8],≤ 1 µg/mL
same,MIC,[9],≤ 1 µg/mL
same,MIC,Bacteroides dorei HM-29,64 µg/mL
same,MIC,[10],64 µg/mL
same,toxin inhibition (in words),[11],No toxin inhibition
same,toxin inhibition (in words),C. difficile ATCC 43255 [12],No toxin inhibition
same,toxin inhibition (in words),C. difficile NR-49277,No toxin inhibition
same,MIC of vancomycin combined with DIHQ,C. difficile I9; C. difficile I9,0.125 µg/mL
same,MIC,"C. difficile I9; Clostridioides difficile, I9, read-out: MIC alone",1 µg/mL
same,MIC of vancomycin combined with DIHQ,[13]; C. difficile ATCC BAA-1870,0.125 µg/mL
same,MIC,"[13]; Clostridioides difficile, ATCCBAA1870, read-out: MIC alone",1 µg/mL
same,MIC of vancomycin combined with DIHQ,C. difficile ATCC 43255 [14]; C. difficile ATCC 43255,0.125 µg/mL
same,MIC,"C. difficile ATCC 43255 [14]; Clostridioides difficile, ATCC43255, read-out: MIC alone",1 µg/mL
same,MIC,C. difficile ATCC 43255 [15],1 µg/mL
